Reference: US5326882A, “Chemiluminescent 3-(substituted Adamant-2'-Ylidene) 1,2-dioxetanes” (Tropix, Inc., priority 1992, dated 1994)

Assays:
[1] = molecular target: T1, alkaline phosphatase-labeled DNA probe (Bos taurus, UniProt P19111); assay: Alkaline phosphatase-labeled DNA probe detection in membrane with and without BDMQ blocking step (Example XV); details: for Detection limit (in picograms DNA) 5. min. exp.: five minute exposure 40 minutes after dioxetane addition; for Detection limit (in picograms DNA) 1 min. exp.: one minute exposure 77 minutes after dioxetane addition
T1 construct: purchased Tropix, Inc
T1 sequence (P19111 20-506 limits assumed): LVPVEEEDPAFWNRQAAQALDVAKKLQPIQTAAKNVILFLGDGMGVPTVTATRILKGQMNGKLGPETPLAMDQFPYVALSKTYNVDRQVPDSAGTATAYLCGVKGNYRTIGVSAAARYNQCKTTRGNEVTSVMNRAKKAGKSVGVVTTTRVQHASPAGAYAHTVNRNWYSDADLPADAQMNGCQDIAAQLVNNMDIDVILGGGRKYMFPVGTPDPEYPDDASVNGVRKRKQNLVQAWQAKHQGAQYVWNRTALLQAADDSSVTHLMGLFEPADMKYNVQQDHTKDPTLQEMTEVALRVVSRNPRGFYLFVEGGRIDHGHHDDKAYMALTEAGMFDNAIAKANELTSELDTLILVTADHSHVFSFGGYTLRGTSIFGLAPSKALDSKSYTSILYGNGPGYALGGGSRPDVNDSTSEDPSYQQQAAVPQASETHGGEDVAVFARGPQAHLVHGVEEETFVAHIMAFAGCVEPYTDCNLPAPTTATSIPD
T1 sequence (P02701 25-152 partner): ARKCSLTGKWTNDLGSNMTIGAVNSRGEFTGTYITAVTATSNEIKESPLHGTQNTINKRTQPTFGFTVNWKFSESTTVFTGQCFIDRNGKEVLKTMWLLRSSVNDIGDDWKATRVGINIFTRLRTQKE

alkaline phosphatase = alkaline phosphatase (Bos taurus, UniProt P19111); assay: Chemiluminescent signal and signal:background with enhancer polymers (Example XVII); assay type: biochemical
alkaline phosphatase, sequence (P19111 20-506 limits assumed): as the sequence (P19111 20-506 limits assumed) above
Procedure: Four sets of three tubes each, each tube in each set containing 450 μl of a 0.4 mM aqueous solution of one of the four 1,2-dioxetanes being compared in 0.1M diethanolamine containing 1 mM magnesium chloride, 0.02% sodium azide and 0.1% of the enhancer polymer, pH 10.0 (substrate buffer) were prepared and the background signal from each tube measured using a Berthold LB 952T luminometer (Berthold Instruments; Wildbad, Federal Republic of Germany).
Next, 50 μl of an aqueous solution, 2.83×10^-12 M of alkaline phosphatase in 0.1M diethanolamine containing 1 mM magnesium chloride, 0.02% sodium azide, pH 10.0, (final enzyme concentration 2.83×10^-13 M) was added to each tube and the chemiluminescent signals were measured in the luminometer at 5 and 20 minutes. The intensity of the chemiluminescent signals and the signal: background ratios obtained for each of the four 1,2-dioxetanes in the presence of the enhancer polymers are shown in Table III below.
The enhancer polymers used, and the symbols for such polymers used in Table III, were the following: […]

[2] = molecular target: T2, alkaline phosphatase (calf intestine; Biozyme) (Bos taurus, UniProt P19111); assay: Total dephosphorylation, chemiluminescence decay (Example XIII); assay type: biochemical; details: 30° C., carbonate/bicarbonate buffer, listed as OH-Adamant-2'-ylidene (B isomer)
T2 construct: purchased Biozyme; host or cells: calf intestine
T2 sequence (P19111 20-506 limits assumed): as above

[3] = BDMQ blocking step, listed as OH-Adamant-2'-ylidene (B isomer)

COC1(c2cccc(OP(=O)(O)O)c2)OOC12C1CC3CC2CC(O)(C3)C1 (single isomer, unassigned) [B-OH-AMPPD, disodium 3-(4-methoxyspiro-[1,2-dioxetane-3,2'-(5'-hydroxy)tricyclo[3.3.1.1^3,7]decan]-4-yl)phenyl phosphate]
Detection limit (in picograms DNA) 5. min. exp. [1, 3]: 1.250 picograms DNA
Detection limit (in picograms DNA) 1 min. exp. [1, 3]: 5.000 picograms DNA
Detection limit (in picograms DNA) 5. min. exp. ([1]; no BDMQ blocking step): 5.000 picograms DNA
Detection limit (in picograms DNA) 1 min. exp. ([1]; no BDMQ blocking step, listed as OH-Adamant-2'-ylidene (B isomer)): 20.000 picograms DNA
S/N (alkaline phosphatase; polymer BAEDM, 5 min): 25.4
SIGNAL (alkaline phosphatase; polymer BAEDM, 5 min): 4101.3
S/N (alkaline phosphatase; polymer BAEDM, 20 min): 34.3
SIGNAL (alkaline phosphatase; polymer BAEDM, 20 min): 5538.2
S/N (alkaline phosphatase; polymer BAEDM, time 0): 1.0
SIGNAL (alkaline phosphatase; polymer BAEDM, time 0 (background, before enzyme)): 161.4
S/N (alkaline phosphatase; polymer BZ, 5 min): 18.8
SIGNAL (alkaline phosphatase; polymer BZ, 5 min): 2246.4
S/N (alkaline phosphatase; polymer BZ, 20 min): 22.4
SIGNAL (alkaline phosphatase; polymer BZ, 20 min): 2669.2
S/N (alkaline phosphatase; polymer BZ, time 0): 1.0
SIGNAL (alkaline phosphatase; polymer BZ, time 0 (background, before enzyme)): 119.4
S/N (alkaline phosphatase; polymer DAA TMQ, 5 min): 40.3
SIGNAL (alkaline phosphatase; polymer DAA TMQ, 5 min): 5486.8
S/N (alkaline phosphatase; polymer DAA TMQ, 20 min): 49.0
SIGNAL (alkaline phosphatase; polymer DAA TMQ, 20 min): 6670.3
S/N (alkaline phosphatase; polymer DAA TMQ, time 0): 1.0
SIGNAL (alkaline phosphatase; polymer DAA TMQ, time 0 (background, before enzyme)): 136.0
S/N (alkaline phosphatase; polymer DME(OH)B, 5 min): 20.0
SIGNAL (alkaline phosphatase; polymer DME(OH)B, 5 min): 2640.9
S/N (alkaline phosphatase; polymer DME(OH)B, 20 min): 30.2
SIGNAL (alkaline phosphatase; polymer DME(OH)B, 20 min): 3990.6
S/N (alkaline phosphatase; polymer DME(OH)B, time 0): 1.0
SIGNAL (alkaline phosphatase; polymer DME(OH)B, time 0 (background, before enzyme)): 132.1
S/N (alkaline phosphatase; polymer DMEB, 5 min): 35.7
SIGNAL (alkaline phosphatase; polymer DMEB, 5 min): 4451.6
S/N (alkaline phosphatase; polymer DMEB, 20 min): 48.3
SIGNAL (alkaline phosphatase; polymer DMEB, 20 min): 6023.9
S/N (alkaline phosphatase; polymer DMEB, time 0): 1.0
SIGNAL (alkaline phosphatase; polymer DMEB, time 0 (background, before enzyme)): 124.6
S/N (alkaline phosphatase; polymer DMQ TEQ, 5 min): 63.3
SIGNAL (alkaline phosphatase; polymer DMQ TEQ, 5 min): 9213.8
S/N (alkaline phosphatase; polymer DMQ TEQ, 20 min): 57.0
SIGNAL (alkaline phosphatase; polymer DMQ TEQ, 20 min): 8288.0
S/N (alkaline phosphatase; polymer DMQ TEQ, time 0): 1.0
SIGNAL (alkaline phosphatase; polymer DMQ TEQ, time 0 (background, before enzyme)): 145.5
S/N (alkaline phosphatase; polymer MPB, 5 min): 71.5
SIGNAL (alkaline phosphatase; polymer MPB, 5 min): 10021.3
S/N (alkaline phosphatase; polymer MPB, 20 min): 78.0
SIGNAL (alkaline phosphatase; polymer MPB, 20 min): 10939.0
S/N (alkaline phosphatase; polymer MPB, time 0): 1.0
SIGNAL (alkaline phosphatase; polymer MPB, time 0 (background, before enzyme)): 140.3
S/N (alkaline phosphatase; polymer NONE, 5 min): 26.3
SIGNAL (alkaline phosphatase; polymer NONE, 5 min, enzyme 2.83×10^-13 M): 3314.8
S/N (alkaline phosphatase; polymer NONE, 20 min): 29.8
SIGNAL (alkaline phosphatase; polymer NONE, 20 min, enzyme 2.83×10^-13 M): 3767.9
S/N (alkaline phosphatase; polymer NONE, time 0): 1.0
SIGNAL (alkaline phosphatase; polymer NONE, time 0 (background, before enzyme)): 126.3
S/N (alkaline phosphatase; polymer S/TMQ(1:2), 5 min): 20.6
SIGNAL (alkaline phosphatase; polymer S/TMQ(1:2), 5 min): 3305.1
S/N (alkaline phosphatase; polymer S/TMQ(1:2), 20 min): 35.7
SIGNAL (alkaline phosphatase; polymer S/TMQ(1:2), 20 min): 5722.3
S/N (alkaline phosphatase; polymer S/TMQ(1:2), time 0): 1.0
SIGNAL (alkaline phosphatase; polymer S/TMQ(1:2), time 0 (background, before enzyme)): 160.3
S/N (alkaline phosphatase; polymer S/TMQ(1:4), 5 min): 35.6
SIGNAL (alkaline phosphatase; polymer S/TMQ(1:4), 5 min): 4775.3
S/N (alkaline phosphatase; polymer S/TMQ(1:4), 20 min): 53.1
SIGNAL (alkaline phosphatase; polymer S/TMQ(1:4), 20 min): 7120.3
S/N (alkaline phosphatase; polymer S/TMQ(1:4), time 0): 1.0
SIGNAL (alkaline phosphatase; polymer S/TMQ(1:4), time 0 (background, before enzyme)): 134.0
SIGNAL (alkaline phosphatase; polymer SAPPHIRE (BDMQ), time 0 (background, before enzyme)): 138.8
S/N (alkaline phosphatase; polymer SAPPHIRE, 5 min): 78.6
SIGNAL (alkaline phosphatase; polymer SAPPHIRE, 5 min): 10908.4
S/N (alkaline phosphatase; polymer SAPPHIRE, 20 min): 105.3
SIGNAL (alkaline phosphatase; polymer SAPPHIRE, 20 min): 14625.4
S/N (alkaline phosphatase; polymer SAPPHIRE, time 0): 1.0
S/N (alkaline phosphatase; polymer TBQ, 5 min): 97.6
SIGNAL (alkaline phosphatase; polymer TBQ, 5 min): 15508.5
S/N (alkaline phosphatase; polymer TBQ, 20 min): 131.1
SIGNAL (alkaline phosphatase; polymer TBQ, 20 min): 20830.8
S/N (alkaline phosphatase; polymer TBQ, time 0): 1.0
SIGNAL (alkaline phosphatase; polymer TBQ, time 0 (background, before enzyme)): 158.9
S/N (alkaline phosphatase; polymer TEQ, 5 min): 61.8
SIGNAL (alkaline phosphatase; polymer TEQ, 5 min): 8806.2
S/N (alkaline phosphatase; polymer TEQ, 20 min): 81.1
SIGNAL (alkaline phosphatase; polymer TEQ, 20 min): 11563.4
S/N (alkaline phosphatase; polymer TEQ, time 0): 1.0
SIGNAL (alkaline phosphatase; polymer TEQ, time 0 (background, before enzyme)): 142.6
S/N (alkaline phosphatase; polymer TMQ, 5 min): 49.8
SIGNAL (alkaline phosphatase; polymer TMQ, 5 min): 6258.9
S/N (alkaline phosphatase; polymer TMQ, 20 min): 70.5
SIGNAL (alkaline phosphatase; polymer TMQ, 20 min): 8857.8
S/N (alkaline phosphatase; polymer TMQ, time 0): 1.0
SIGNAL (alkaline phosphatase; polymer TMQ, time 0 (background, before enzyme)): 125.7
Total Decay Time [2]: 10 min
Decay Rate I ([2]; RLU's per minute): 1.5 RLU's per minute
